Data as given in PMC6430017, “Structural and chemical insights into the covalent-allosteric inhibition of the protein kinase Akt” (Chemical Science, 2019).

Molecular target: PASK (Homo sapiens, UniProt Q96RG2)
Assay: SelectScreen Z'LYTE kinase profiling
Format: biochemical
Settings: ATP at apparent KM
Experimental: (§1) protein kinases at a compound concentration of 1 µM. Measurements were performed in duplicates
(§2) and at the particular apparent ATP KM of each individual kinase employing the activity based Z’LYTE®
(§3) kinase assay of the SelectScreen® Kinase Profiling Services (ThermoFisher Scientific).
(§4) kinases at a compound concentration of 1 µM. Measurements were performed in duplicates and at
(§5) the particular apparent ATP KM of each individual kinase employing the activity based Z’LYTE® kinase
(§6) assay of the SelectScreen® Kinase Profiling Services (ThermoFisher Scientific).

Structure (SMILES) | inhibition at 1 µM
C=CC(=O)Nc1cccc(C(=O)NC2CCN(Cc3ccc(-c4nc5cc[nH]c(=O)c5cc4-c4ccccc4)cc3)CC2)c1 [30b] | 29%
C=CC(=O)Nc1cc(NC(=O)NC2CCN(Cc3ccc(-c4nc5cc[nH]c(=O)c5cc4-c4ccccc4)cc3)CC2)ccc1Cl [compound 27] | 61%

Molecular target: CDK1/cyclin B (Homo sapiens, UniProt P06493)
Sequence (P06493 whole entry): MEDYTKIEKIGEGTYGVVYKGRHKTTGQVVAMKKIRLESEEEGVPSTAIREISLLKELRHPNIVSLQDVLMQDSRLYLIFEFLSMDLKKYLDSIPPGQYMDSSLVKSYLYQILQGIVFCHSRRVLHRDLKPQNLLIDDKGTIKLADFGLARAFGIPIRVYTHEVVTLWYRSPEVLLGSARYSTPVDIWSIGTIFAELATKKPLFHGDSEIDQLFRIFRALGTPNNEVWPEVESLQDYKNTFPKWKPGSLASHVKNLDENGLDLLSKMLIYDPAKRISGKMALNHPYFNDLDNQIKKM
Sequence (P14635 whole entry partner): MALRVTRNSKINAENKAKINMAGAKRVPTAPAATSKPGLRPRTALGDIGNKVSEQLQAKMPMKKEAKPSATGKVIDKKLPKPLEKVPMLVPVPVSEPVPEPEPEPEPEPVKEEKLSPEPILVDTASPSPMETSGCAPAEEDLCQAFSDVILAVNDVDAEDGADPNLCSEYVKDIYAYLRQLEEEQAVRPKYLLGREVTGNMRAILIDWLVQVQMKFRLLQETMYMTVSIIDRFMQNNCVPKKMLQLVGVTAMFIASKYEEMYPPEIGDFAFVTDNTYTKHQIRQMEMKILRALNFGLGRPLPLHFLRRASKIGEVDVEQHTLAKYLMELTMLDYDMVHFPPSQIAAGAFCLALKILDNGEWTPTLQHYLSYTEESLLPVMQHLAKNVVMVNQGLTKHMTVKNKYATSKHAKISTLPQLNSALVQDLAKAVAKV
Assay: SelectScreen Z'LYTE kinase profiling
Format: biochemical
Settings: ATP at apparent KM
Experimental: as §1, §2, §3, §4, §5, §6

Structure (SMILES) | inhibition at 1 µM
C=CC(=O)Nc1cccc(C(=O)NC2CCN(Cc3ccc(-c4nc5cc[nH]c(=O)c5cc4-c4ccccc4)cc3)CC2)c1 [30b] | 3%
C=CC(=O)Nc1cc(NC(=O)NC2CCN(Cc3ccc(-c4nc5cc[nH]c(=O)c5cc4-c4ccccc4)cc3)CC2)ccc1Cl [compound 27] | 3%

Molecular target: SRC (Homo sapiens, UniProt P12931)
Sequence (P12931 whole entry): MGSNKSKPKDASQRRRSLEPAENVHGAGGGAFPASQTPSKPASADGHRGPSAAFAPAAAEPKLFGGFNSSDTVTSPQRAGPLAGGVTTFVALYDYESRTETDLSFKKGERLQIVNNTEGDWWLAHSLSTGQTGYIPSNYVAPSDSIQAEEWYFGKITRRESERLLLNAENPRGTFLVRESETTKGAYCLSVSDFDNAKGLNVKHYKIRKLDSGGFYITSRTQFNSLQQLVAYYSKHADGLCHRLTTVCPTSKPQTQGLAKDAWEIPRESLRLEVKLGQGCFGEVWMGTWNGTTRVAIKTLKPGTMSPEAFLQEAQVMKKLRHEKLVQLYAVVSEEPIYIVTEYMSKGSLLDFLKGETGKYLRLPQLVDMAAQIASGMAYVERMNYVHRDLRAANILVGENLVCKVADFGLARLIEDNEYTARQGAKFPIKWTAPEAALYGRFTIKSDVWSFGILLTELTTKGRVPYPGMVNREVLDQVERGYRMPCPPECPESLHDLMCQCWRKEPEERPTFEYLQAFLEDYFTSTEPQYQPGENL
Assay: SelectScreen Z'LYTE kinase profiling
Format: biochemical
Settings: ATP at apparent KM
Experimental: as §1, §2, §3, §4, §5, §6

Structure (SMILES) | inhibition at 1 µM
C=CC(=O)Nc1cccc(C(=O)NC2CCN(Cc3ccc(-c4nc5cc[nH]c(=O)c5cc4-c4ccccc4)cc3)CC2)c1 [30b] | 17%
C=CC(=O)Nc1cc(NC(=O)NC2CCN(Cc3ccc(-c4nc5cc[nH]c(=O)c5cc4-c4ccccc4)cc3)CC2)ccc1Cl [compound 27] | 36%

Molecular target: RPS6KA4 (MSK2) (Homo sapiens, UniProt O75676)
Assay: SelectScreen Z'LYTE kinase profiling
Format: biochemical
Settings: ATP at apparent KM
Experimental: as §1, §2, §3, §4, §5, §6

Structure (SMILES) | inhibition at 1 µM
C=CC(=O)Nc1cccc(C(=O)NC2CCN(Cc3ccc(-c4nc5cc[nH]c(=O)c5cc4-c4ccccc4)cc3)CC2)c1 [30b] | 11%
C=CC(=O)Nc1cc(NC(=O)NC2CCN(Cc3ccc(-c4nc5cc[nH]c(=O)c5cc4-c4ccccc4)cc3)CC2)ccc1Cl [compound 27] | 16%

Molecular target: MELK (Homo sapiens, UniProt Q14680)
Sequence (Q14680 whole entry): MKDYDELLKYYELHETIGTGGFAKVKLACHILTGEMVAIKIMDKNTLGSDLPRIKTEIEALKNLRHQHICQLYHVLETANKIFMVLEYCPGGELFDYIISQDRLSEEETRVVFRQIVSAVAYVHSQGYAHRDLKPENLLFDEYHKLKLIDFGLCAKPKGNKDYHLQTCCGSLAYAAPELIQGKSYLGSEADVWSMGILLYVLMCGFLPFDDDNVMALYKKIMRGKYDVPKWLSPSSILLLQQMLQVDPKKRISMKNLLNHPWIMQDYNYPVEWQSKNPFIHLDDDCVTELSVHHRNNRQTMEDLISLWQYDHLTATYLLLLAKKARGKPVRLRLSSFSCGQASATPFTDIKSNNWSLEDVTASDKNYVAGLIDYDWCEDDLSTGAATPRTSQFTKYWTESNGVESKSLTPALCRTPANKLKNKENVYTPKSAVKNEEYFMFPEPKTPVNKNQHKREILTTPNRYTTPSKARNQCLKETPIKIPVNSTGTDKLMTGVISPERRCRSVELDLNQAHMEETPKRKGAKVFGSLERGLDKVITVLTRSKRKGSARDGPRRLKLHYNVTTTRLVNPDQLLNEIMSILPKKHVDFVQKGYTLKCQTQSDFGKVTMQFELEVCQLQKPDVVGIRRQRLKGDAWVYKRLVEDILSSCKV
Assay: SelectScreen Z'LYTE kinase profiling
Format: biochemical
Settings: ATP at apparent KM
Experimental: as §1, §2, §3, §4, §5, §6

Structure (SMILES) | inhibition at 1 µM
C=CC(=O)Nc1cccc(C(=O)NC2CCN(Cc3ccc(-c4nc5cc[nH]c(=O)c5cc4-c4ccccc4)cc3)CC2)c1 [30b] | 52%
C=CC(=O)Nc1cc(NC(=O)NC2CCN(Cc3ccc(-c4nc5cc[nH]c(=O)c5cc4-c4ccccc4)cc3)CC2)ccc1Cl [compound 27] | 83%

Molecular target: T1, PRKCZ (PKC zeta) (Homo sapiens, UniProt Q05513)
T1 sequence (Q05513 1-592): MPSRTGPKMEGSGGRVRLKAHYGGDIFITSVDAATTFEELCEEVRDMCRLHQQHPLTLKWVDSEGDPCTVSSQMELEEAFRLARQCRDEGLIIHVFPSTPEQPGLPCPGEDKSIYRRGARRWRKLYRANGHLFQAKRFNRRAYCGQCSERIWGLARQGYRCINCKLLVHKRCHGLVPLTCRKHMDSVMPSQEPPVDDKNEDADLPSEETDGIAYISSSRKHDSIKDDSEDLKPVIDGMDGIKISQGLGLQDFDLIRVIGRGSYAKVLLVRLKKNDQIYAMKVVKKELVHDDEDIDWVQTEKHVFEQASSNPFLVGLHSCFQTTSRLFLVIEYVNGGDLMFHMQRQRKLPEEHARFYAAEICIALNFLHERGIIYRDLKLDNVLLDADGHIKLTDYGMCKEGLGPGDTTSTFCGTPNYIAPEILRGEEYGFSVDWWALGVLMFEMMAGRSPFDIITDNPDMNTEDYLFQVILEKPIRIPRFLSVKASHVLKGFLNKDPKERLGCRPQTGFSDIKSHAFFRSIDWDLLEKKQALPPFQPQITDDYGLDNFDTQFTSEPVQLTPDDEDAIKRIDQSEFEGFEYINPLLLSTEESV
Assay: SelectScreen Z'LYTE kinase profiling
Format: biochemical
Settings: ATP at apparent KM
Experimental: as §1, §2, §3, §4, §5, §6

Structure (SMILES) | inhibition at 1 µM
C=CC(=O)Nc1cccc(C(=O)NC2CCN(Cc3ccc(-c4nc5cc[nH]c(=O)c5cc4-c4ccccc4)cc3)CC2)c1 [30b] | -4%
C=CC(=O)Nc1cc(NC(=O)NC2CCN(Cc3ccc(-c4nc5cc[nH]c(=O)c5cc4-c4ccccc4)cc3)CC2)ccc1Cl [compound 27] | -14%

Molecular target: FRAP1 (mTOR) (Homo sapiens, UniProt P42345)
Assay: SelectScreen Z'LYTE kinase profiling
Format: biochemical
Settings: ATP at apparent KM
Experimental: as §1, §2, §3, §4, §5, §6

Structure (SMILES) | inhibition at 1 µM
C=CC(=O)Nc1cccc(C(=O)NC2CCN(Cc3ccc(-c4nc5cc[nH]c(=O)c5cc4-c4ccccc4)cc3)CC2)c1 [30b] | 1%
C=CC(=O)Nc1cc(NC(=O)NC2CCN(Cc3ccc(-c4nc5cc[nH]c(=O)c5cc4-c4ccccc4)cc3)CC2)ccc1Cl [compound 27] | -2%

Molecular target: FGFR1 (Homo sapiens, UniProt P11362)
Sequence (P11362 22-822): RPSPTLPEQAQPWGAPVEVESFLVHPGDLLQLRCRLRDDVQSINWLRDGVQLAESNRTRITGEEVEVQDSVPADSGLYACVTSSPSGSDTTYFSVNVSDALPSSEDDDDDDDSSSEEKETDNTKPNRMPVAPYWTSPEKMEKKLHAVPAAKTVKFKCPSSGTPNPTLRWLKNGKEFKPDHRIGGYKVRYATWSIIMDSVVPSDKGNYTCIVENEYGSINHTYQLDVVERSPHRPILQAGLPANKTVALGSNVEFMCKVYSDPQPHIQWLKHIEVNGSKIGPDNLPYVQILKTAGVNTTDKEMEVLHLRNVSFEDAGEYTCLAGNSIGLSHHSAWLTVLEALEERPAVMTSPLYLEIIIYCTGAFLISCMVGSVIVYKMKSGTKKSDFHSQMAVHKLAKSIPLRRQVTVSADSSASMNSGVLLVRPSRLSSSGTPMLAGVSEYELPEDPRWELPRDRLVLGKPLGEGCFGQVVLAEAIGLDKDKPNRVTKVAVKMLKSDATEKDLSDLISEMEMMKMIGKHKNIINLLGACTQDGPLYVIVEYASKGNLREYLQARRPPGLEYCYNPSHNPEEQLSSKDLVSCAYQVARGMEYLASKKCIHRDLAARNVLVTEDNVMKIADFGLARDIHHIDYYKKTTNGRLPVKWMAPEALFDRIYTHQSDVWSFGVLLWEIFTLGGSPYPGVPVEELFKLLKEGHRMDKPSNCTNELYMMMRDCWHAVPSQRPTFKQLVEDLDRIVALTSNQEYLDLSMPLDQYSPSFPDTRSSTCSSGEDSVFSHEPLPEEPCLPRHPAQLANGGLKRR
Assay: SelectScreen Z'LYTE kinase profiling
Format: biochemical
Settings: ATP at apparent KM
Experimental: as §1, §2, §3, §4, §5, §6

Structure (SMILES) | inhibition at 1 µM
C=CC(=O)Nc1cccc(C(=O)NC2CCN(Cc3ccc(-c4nc5cc[nH]c(=O)c5cc4-c4ccccc4)cc3)CC2)c1 [30b] | 10%
C=CC(=O)Nc1cc(NC(=O)NC2CCN(Cc3ccc(-c4nc5cc[nH]c(=O)c5cc4-c4ccccc4)cc3)CC2)ccc1Cl [compound 27] | 24%

Molecular target: DNA-PK (Homo sapiens, UniProt P78527)
Assay: SelectScreen Z'LYTE kinase profiling
Format: biochemical
Settings: ATP at apparent KM
Experimental: as §1, §2, §3, §4, §5, §6

Structure (SMILES) | inhibition at 1 µM
C=CC(=O)Nc1cccc(C(=O)NC2CCN(Cc3ccc(-c4nc5cc[nH]c(=O)c5cc4-c4ccccc4)cc3)CC2)c1 [30b] | 8%
C=CC(=O)Nc1cc(NC(=O)NC2CCN(Cc3ccc(-c4nc5cc[nH]c(=O)c5cc4-c4ccccc4)cc3)CC2)ccc1Cl [compound 27] | 5%

Molecular target: MAP4K5 (KHS1) (Homo sapiens, UniProt Q9Y4K4)
Sequence (Q9Y4K4 whole entry): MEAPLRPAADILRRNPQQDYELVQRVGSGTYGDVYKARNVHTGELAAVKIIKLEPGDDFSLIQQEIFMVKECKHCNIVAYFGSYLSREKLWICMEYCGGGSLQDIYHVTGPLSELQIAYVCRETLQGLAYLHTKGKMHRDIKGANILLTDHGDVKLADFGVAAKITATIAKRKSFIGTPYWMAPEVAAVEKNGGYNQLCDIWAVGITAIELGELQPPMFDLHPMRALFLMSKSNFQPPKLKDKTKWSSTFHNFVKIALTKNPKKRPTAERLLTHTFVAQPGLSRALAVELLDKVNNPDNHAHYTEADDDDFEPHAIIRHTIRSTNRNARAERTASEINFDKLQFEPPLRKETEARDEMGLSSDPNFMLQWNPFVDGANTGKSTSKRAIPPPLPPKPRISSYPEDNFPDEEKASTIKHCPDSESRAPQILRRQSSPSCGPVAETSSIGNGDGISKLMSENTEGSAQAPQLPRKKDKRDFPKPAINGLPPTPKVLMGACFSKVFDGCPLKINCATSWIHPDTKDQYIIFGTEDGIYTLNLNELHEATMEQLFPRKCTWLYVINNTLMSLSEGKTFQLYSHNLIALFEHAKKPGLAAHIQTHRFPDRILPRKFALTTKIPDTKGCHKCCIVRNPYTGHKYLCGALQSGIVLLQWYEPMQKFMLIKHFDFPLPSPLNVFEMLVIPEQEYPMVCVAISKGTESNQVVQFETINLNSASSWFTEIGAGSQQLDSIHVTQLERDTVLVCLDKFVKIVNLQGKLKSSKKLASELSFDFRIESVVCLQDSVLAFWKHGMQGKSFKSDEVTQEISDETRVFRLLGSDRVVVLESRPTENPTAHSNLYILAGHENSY
Assay: SelectScreen Z'LYTE kinase profiling
Format: biochemical
Settings: ATP at apparent KM
Experimental: as §1, §2, §3, §4, §5, §6

Structure (SMILES) | inhibition at 1 µM
C=CC(=O)Nc1cccc(C(=O)NC2CCN(Cc3ccc(-c4nc5cc[nH]c(=O)c5cc4-c4ccccc4)cc3)CC2)c1 [30b] | 18%
C=CC(=O)Nc1cc(NC(=O)NC2CCN(Cc3ccc(-c4nc5cc[nH]c(=O)c5cc4-c4ccccc4)cc3)CC2)ccc1Cl [compound 27] | 5%

Molecular target: MAPKAPK2 (Homo sapiens, UniProt P49137)
Sequence (P49137 whole entry): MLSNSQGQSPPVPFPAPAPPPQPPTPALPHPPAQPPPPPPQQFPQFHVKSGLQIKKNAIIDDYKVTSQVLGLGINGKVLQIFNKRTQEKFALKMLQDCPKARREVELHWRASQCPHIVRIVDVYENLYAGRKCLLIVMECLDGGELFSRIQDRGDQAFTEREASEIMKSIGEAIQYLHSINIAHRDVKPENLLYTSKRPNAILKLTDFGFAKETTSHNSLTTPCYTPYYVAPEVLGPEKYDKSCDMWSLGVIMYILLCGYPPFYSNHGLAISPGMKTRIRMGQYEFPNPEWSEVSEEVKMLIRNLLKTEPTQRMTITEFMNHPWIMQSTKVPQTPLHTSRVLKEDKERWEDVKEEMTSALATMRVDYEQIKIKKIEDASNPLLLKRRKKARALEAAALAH
Assay: SelectScreen Z'LYTE kinase profiling
Format: biochemical
Settings: ATP at apparent KM
Experimental: as §1, §2, §3, §4, §5, §6

Structure (SMILES) | inhibition at 1 µM
C=CC(=O)Nc1cccc(C(=O)NC2CCN(Cc3ccc(-c4nc5cc[nH]c(=O)c5cc4-c4ccccc4)cc3)CC2)c1 [30b] | 31%
C=CC(=O)Nc1cc(NC(=O)NC2CCN(Cc3ccc(-c4nc5cc[nH]c(=O)c5cc4-c4ccccc4)cc3)CC2)ccc1Cl [compound 27] | 33%

Molecular target: GRK4 (Homo sapiens, UniProt P32298)
Assay: SelectScreen Z'LYTE kinase profiling
Format: biochemical
Settings: ATP at apparent KM
Experimental: as §1, §2, §3, §4, §5, §6

Structure (SMILES) | inhibition at 1 µM
C=CC(=O)Nc1cccc(C(=O)NC2CCN(Cc3ccc(-c4nc5cc[nH]c(=O)c5cc4-c4ccccc4)cc3)CC2)c1 [30b] | 6%
C=CC(=O)Nc1cc(NC(=O)NC2CCN(Cc3ccc(-c4nc5cc[nH]c(=O)c5cc4-c4ccccc4)cc3)CC2)ccc1Cl [compound 27] | 11%

Molecular target: CDK2/cyclin A (Homo sapiens, UniProt P24941)
Assay: SelectScreen Z'LYTE kinase profiling
Format: biochemical
Settings: ATP at apparent KM
Experimental: as §1, §2, §3, §4, §5, §6

Structure (SMILES) | inhibition at 1 µM
C=CC(=O)Nc1cccc(C(=O)NC2CCN(Cc3ccc(-c4nc5cc[nH]c(=O)c5cc4-c4ccccc4)cc3)CC2)c1 [30b] | 11%
C=CC(=O)Nc1cc(NC(=O)NC2CCN(Cc3ccc(-c4nc5cc[nH]c(=O)c5cc4-c4ccccc4)cc3)CC2)ccc1Cl [compound 27] | 6%

Molecular target: MAPK3 (ERK1) (Homo sapiens, UniProt P27361)
Sequence (P27361 whole entry): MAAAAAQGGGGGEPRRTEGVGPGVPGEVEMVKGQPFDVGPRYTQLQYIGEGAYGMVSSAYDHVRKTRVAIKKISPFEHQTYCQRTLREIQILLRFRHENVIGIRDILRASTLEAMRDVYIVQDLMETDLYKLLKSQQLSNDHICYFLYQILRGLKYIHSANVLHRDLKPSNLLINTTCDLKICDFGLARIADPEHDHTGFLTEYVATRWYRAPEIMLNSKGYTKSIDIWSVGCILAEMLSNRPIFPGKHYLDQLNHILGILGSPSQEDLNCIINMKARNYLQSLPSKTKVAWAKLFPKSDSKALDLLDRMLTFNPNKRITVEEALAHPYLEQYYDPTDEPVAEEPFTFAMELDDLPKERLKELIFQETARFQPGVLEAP
Assay: SelectScreen Z'LYTE kinase profiling
Format: biochemical
Settings: ATP at apparent KM
Experimental: as §1, §2, §3, §4, §5, §6

Structure (SMILES) | inhibition at 1 µM
C=CC(=O)Nc1cccc(C(=O)NC2CCN(Cc3ccc(-c4nc5cc[nH]c(=O)c5cc4-c4ccccc4)cc3)CC2)c1 [30b] | 3%
C=CC(=O)Nc1cc(NC(=O)NC2CCN(Cc3ccc(-c4nc5cc[nH]c(=O)c5cc4-c4ccccc4)cc3)CC2)ccc1Cl [compound 27] | 3%

Molecular target: RPS6KB1 (p70S6K) (Homo sapiens, UniProt P23443)
Sequence (P23443 whole entry): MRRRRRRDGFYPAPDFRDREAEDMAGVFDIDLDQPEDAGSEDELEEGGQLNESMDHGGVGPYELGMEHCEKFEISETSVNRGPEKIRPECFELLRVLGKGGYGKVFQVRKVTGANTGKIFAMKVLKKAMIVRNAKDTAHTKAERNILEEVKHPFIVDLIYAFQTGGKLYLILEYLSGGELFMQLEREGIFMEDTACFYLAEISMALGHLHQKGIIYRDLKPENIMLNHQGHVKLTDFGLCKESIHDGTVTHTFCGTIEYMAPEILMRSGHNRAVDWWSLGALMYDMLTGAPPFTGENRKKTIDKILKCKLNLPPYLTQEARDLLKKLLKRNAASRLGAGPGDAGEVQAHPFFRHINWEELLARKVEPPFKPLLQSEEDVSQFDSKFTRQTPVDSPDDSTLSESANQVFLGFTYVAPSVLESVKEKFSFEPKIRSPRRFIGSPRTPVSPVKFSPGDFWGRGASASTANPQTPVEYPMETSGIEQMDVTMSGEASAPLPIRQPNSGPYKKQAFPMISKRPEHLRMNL
Assay: SelectScreen Z'LYTE kinase profiling
Format: biochemical
Settings: ATP at apparent KM

Structure (SMILES) | inhibition at 1 µM
C=CC(=O)Nc1cccc(C(=O)NC2CCN(Cc3ccc(-c4nc5cc[nH]c(=O)c5cc4-c4ccccc4)cc3)CC2)c1 [30b] | 8%
C=CC(=O)Nc1cc(NC(=O)NC2CCN(Cc3ccc(-c4nc5cc[nH]c(=O)c5cc4-c4ccccc4)cc3)CC2)ccc1Cl [compound 27] | 29%

Molecular target: T2, JAK3 (Homo sapiens, UniProt P52333)
T2 sequence (P52333 1-1124): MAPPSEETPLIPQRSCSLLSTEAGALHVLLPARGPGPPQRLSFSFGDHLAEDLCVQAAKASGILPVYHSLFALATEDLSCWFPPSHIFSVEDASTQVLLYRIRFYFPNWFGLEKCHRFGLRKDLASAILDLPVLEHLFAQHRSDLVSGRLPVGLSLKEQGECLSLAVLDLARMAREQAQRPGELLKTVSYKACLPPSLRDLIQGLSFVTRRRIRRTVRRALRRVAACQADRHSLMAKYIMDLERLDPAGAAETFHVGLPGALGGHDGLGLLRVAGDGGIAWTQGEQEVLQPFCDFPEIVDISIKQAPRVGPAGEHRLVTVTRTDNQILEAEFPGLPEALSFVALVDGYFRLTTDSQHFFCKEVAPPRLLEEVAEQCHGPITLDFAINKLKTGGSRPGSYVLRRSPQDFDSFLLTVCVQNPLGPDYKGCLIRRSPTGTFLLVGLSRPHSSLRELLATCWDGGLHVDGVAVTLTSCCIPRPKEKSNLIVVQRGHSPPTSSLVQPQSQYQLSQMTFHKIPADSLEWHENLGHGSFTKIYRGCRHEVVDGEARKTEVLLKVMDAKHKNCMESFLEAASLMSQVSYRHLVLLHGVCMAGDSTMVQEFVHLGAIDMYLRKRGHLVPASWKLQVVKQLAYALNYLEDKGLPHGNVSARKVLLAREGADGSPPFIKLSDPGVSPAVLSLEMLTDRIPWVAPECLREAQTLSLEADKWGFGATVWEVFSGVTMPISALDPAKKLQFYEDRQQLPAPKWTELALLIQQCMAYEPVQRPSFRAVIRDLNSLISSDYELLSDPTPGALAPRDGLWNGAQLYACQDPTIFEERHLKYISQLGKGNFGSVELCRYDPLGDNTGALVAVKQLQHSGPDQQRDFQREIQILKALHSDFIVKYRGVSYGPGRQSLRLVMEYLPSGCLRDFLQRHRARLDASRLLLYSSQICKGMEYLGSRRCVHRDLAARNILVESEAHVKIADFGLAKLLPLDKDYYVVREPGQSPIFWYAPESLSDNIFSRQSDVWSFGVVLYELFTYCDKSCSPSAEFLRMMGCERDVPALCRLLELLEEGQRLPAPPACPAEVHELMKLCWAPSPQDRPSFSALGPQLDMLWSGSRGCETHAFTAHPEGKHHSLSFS
Assay: SelectScreen Z'LYTE kinase profiling
Format: biochemical
Settings: ATP at apparent KM
Experimental: as §1, §2, §3, §4, §5, §6

Structure (SMILES) | inhibition at 1 µM
C=CC(=O)Nc1cccc(C(=O)NC2CCN(Cc3ccc(-c4nc5cc[nH]c(=O)c5cc4-c4ccccc4)cc3)CC2)c1 [30b] | 26%
C=CC(=O)Nc1cc(NC(=O)NC2CCN(Cc3ccc(-c4nc5cc[nH]c(=O)c5cc4-c4ccccc4)cc3)CC2)ccc1Cl [compound 27] | 17%
